Assay [1] has as its system ALDH+/CD44+/CD24− SUM-159 breast cancer stem-like cells. In words: Mouse xenograft of SUM159 ALDH+/CD44+/CD24− cells. It is filed as in vivo, NOD/SCID mice. Conditions: 5 mg/kg IP daily; P<0.05. As for the experimental part:
All animal studies were conducted in accordance with the principles and standard procedures approved by IACUC at the Research Institute at Nationwide Children’s Hospital and the University Committee on the Use and Care of Animals at the University of Michigan. ALDH^+ subpopulations of MDA-MB-231 and ALDH^+/CD44^+/CD24^− subpopulations of SUM-159 breast cancer cells (1×10^5) respectively were injected subcutaneous (s.c.) into the flank area of female Non-obese diabetic (NOD)/Severe combined immunodeficiency (SCID) mice which were purchased from Jackson Laboratory.

The next assay concerns the target Fes (Homo sapiens, UniProt P07332). Put plainly: Kinase profiler assay, Fes. In kind it is biochemical. To be noted: 10 concentrations, 100 µM highest; Table S3. As for the experimental part:
(§1) The effects of LLL12 on twenty six purified human protein kinases were performed at the Millipore UK Limited (Dundee, UK) and Reaction Biology Corp. (Malvern, PA) using the Kinase profiler assay. Assays contained a peptide substrate, purified recombinant human protein kinases to be tested, and gamma-labeled ATP, magnesiumion. Radioactive phosphorylated product was measured and quantitated via a scintillation counter.

For a further assay, the target named is JAK2 (Homo sapiens, UniProt O60674). In words: Kinase profiler assay, JAK2. In kind it is biochemical. To be noted: 10 concentrations, 100 µM highest; Table S3. As for the experimental part:
as §1

For another assay, the target named is PI3K. Put plainly: Kinase profiler assay, PI3K. In kind it is biochemical, human. Conditions: bound stated jointly for the other protein kinases; Table S3. How it is done: as §1
For assay [2], the system named is ALDH+/CD44+/CD24− subpopulation of MDA-MB-231 and SUM159 breast cancer cells. In words: Tumorsphere formation of ALDH+/CD44+/CD24− subpopulation. It is filed as cell-based, human. Conditions: Figure 5E. How it is done:
ALDH^+ and ALDH^+/CD44^+/CD24^− cells were plated as single cells in ultra-low attachment six-well plates at a density of 250, 500, 1000 or 50,000 viable cells/well as previously described. On the second day after seeding, the ALDH^+ cancer cells were treated with 2.5–10 µmol/L of LLL12 or Stattic. For tumorsphere forming capacity assay, ALDH^+ or ALDH^− cells were plated as single cells in ultra-low attachment six-well plates at a density of 250, 500 or 1000 viable cells/well. Tumorsphere growth was observed under a microscope 10 to 15 days later.

For the next assay, the target named is c-Raf (Homo sapiens, UniProt P04049). In words: Kinase profiler assay, c-Raf. It is filed as biochemical. Conditions: bound stated jointly for the other protein kinases; Table S3. How it is done: as §1
Sequence of c-Raf (P04049 whole entry): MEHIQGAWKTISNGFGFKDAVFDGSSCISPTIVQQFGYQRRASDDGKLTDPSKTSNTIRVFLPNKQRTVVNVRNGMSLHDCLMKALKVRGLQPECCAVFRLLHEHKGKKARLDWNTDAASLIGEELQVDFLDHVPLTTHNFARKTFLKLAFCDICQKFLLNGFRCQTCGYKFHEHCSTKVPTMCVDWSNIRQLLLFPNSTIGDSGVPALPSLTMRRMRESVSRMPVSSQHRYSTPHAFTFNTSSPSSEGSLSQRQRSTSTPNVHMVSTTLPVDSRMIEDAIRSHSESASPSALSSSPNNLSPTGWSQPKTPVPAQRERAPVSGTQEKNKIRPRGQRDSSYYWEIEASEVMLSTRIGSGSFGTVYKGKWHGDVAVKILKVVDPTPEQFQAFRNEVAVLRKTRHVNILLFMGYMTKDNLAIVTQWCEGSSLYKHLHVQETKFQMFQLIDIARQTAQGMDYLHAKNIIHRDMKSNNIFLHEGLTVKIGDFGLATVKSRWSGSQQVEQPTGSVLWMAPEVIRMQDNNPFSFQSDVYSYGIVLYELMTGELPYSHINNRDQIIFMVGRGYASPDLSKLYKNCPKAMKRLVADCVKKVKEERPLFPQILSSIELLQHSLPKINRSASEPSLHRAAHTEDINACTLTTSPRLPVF
The next assay concerns ALDH1. In words: ALDH1 protein expression in ALDH+ cells. In kind it is cell-based, human. How it is done:
(§2) After sorting by flow cytometry, ALDH^+ and ALDH^+/CD44^+/CD24^− stem-like cells were cultured in serum-free stem cell medium in ultra-low attachment six-well plates (Corning) to maintain cancer stem cell characteristics. ALDH^−, ALDH^−/CD44^+/CD24^+cells and un-separated cells were cultured in regular medium and replaced with identical stem cell medium for three days before being harvested. To assess the effects of STAT3 inhibitors, ALDH^+ and ALDH^+/CD44^+/CD24^− subpopulations of breast cancer cells were treated with LLL12 (5 µmol/L) of or static (10 µmol/L) for 24 hours. STAT3, or control GFP shRNA lentivirus (CTL ShRNA) was introduced into ALDH^+ breast cancer stem-like cells for 48 hours, then followed by selection with puromycin (0.2 µg/ml) for 72 hours. Antibodies (Cell Signaling Tech.) against phospho-specific STAT3 (Tyrosine 705) (P-STAT3, Y705), ERK1/2 (Threonine 202/Tyrosine 204), cleaved Poly (ADP-ribose) polymerase (PARP), ALDH1, cleaved caspase-3, and GAPDH were used for western blots.

Another assay addresses Met (Homo sapiens, UniProt P08581). Put plainly: Kinase profiler assay, Met. It is filed as biochemical. Conditions: bound stated jointly for the other protein kinases; Table S3. As for the experimental part:
as §1

Assay [3] concerns STAT3 phosphorylation (Y705). In words: Western blot of STAT3 phosphorylation in un-separated breast cancer cells. In kind it is cell-based, human. To be noted: un-separated MDA-MB-231, SK-BR-3, SUM159 cells, 10 µM, 24 hours. As for the experimental part: as §2
LLL12 was synthesized in Dr. Pui-Kai Li’s laboratory (College of Pharmacy, The Ohio State University). Un-separated cells were treated with 10 µM of LLL12 or DMSO for 24 hours, and the phosphorylation of STAT3 (Y705), and ERK 1/2 (T202/Y204), and expression of STAT3 downstream genes, cleaved caspase-3, and PARP were detected by Western blots. (JPG) Click here for additional data file.

Assay [4] deals with tumor tissues from breast cancer stem-like cells. In words: Immunohistochemistry of tumor tissues (Ki-67, cleaved caspase-3). It is filed as in vivo, NOD/SCID mice. Conditions: 5 mg/kg IP daily. How it is done:
Human breast cancer tissue microarray slides, comprising 95 breast cancer cases, were obtained from the Biochain Institute, Inc.. These slides were baked at 60°C for 1 hour. After deparaffinization, the slides were boiled in a pressure cooker filled with 10 mM Sodium Citrate (PH6.0), and then subjected to immunohistochemistry or immunofluorescence staining. P-STAT3 (Y705) (1∶25; Signaling Technology, Beverly, MA), ALDH1 (1∶100; BD Pharmingen, San Diego, CA), Ki-67 (1∶100; Santa Cruz Biotechnology, Santa Cruz, CA) or cleaved Caspase-3 (1∶100; Signaling Technology, Beverly, MA) antibody were used. For immunofluorescence, the slides were incubated with both primary antibodies and double-stained with Alexa Fluor® 488 conjugated anti-rabbit IgG and Alexa Fluor® 594 conjugated anti-mouse IgG (Cell Signaling Technology, Beverly, MA) overnight at 4°C. The nuclei were subsequently stained with DAPI. For immunohistochemistry, endogenous peroxidase activity was quenched by incubation in 3% hydrogen peroxide for 10 min. After blocking, the slides were incubated with primary antibody overnight at 4°C. The Histostain-Plus Kits (Invitrogen, Carlsbad, CA) were used per the manufacturer’s protocol. […] The staining intensity was scored under microscope as described elsewhere. Significance of correlation between P-STAT3 and ALDH1 was determined using two-sided Pearson Chi-square (χ^2) test.

The target of a further assay is c-SRC (Homo sapiens, UniProt P12931). Put plainly: Kinase profiler assay, c-SRC. In kind it is biochemical. To be noted: 10 concentrations, 100 µM highest; Table S3. As for the experimental part: as §1
Sequence of c-SRC (P12931 whole entry): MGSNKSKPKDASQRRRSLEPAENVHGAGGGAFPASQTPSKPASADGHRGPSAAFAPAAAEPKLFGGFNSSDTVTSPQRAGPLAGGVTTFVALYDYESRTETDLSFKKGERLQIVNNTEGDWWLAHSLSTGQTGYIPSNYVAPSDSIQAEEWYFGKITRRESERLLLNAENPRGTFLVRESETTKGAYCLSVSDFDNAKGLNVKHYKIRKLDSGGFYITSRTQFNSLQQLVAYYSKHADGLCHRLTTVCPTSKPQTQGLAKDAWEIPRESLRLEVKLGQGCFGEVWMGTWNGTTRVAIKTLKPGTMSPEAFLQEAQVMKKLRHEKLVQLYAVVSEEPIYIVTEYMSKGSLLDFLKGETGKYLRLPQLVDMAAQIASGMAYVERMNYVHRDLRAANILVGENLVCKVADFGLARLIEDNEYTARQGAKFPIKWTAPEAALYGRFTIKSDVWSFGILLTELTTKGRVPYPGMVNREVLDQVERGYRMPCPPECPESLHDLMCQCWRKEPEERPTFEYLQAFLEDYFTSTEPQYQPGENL
The target of another assay is PDK1 (Homo sapiens, UniProt O15530). In words: Kinase profiler assay, PDK1. In kind it is biochemical. To be noted: bound stated jointly for the other protein kinases; Table S3. As for the experimental part:
as §1

A further assay deals with ALDH− cells. Put plainly: MTT cell viability assay, ALDH− subpopulation. It is filed as cell-based, human. Conditions: Figure S4. As for the experimental part:
The breast cancer cells were seeded in 96-well plates (3,000 cells/well) in triplicates in a serum-free mammary epithelial basal medium. The following day, cancer cells were treated with 1 to 10 µmol/L of LLL12 or Stattic for 72 hours, STAT3 ShRNA or control GFP shRNA lentivirus (CTL ShRNA) for 48 hours. MTT (Thiazolyl Blue Tetrazolium Bromide, Sigma-Aldrich) assay was used to determine the cell viability.
Background: Tetrazolium assays rely on reduction of a dye to a coloured formazan, in cell work by metabolically active cells.

The structures appear in SMILES notation.

Sequence of Met (P08581 25-1390): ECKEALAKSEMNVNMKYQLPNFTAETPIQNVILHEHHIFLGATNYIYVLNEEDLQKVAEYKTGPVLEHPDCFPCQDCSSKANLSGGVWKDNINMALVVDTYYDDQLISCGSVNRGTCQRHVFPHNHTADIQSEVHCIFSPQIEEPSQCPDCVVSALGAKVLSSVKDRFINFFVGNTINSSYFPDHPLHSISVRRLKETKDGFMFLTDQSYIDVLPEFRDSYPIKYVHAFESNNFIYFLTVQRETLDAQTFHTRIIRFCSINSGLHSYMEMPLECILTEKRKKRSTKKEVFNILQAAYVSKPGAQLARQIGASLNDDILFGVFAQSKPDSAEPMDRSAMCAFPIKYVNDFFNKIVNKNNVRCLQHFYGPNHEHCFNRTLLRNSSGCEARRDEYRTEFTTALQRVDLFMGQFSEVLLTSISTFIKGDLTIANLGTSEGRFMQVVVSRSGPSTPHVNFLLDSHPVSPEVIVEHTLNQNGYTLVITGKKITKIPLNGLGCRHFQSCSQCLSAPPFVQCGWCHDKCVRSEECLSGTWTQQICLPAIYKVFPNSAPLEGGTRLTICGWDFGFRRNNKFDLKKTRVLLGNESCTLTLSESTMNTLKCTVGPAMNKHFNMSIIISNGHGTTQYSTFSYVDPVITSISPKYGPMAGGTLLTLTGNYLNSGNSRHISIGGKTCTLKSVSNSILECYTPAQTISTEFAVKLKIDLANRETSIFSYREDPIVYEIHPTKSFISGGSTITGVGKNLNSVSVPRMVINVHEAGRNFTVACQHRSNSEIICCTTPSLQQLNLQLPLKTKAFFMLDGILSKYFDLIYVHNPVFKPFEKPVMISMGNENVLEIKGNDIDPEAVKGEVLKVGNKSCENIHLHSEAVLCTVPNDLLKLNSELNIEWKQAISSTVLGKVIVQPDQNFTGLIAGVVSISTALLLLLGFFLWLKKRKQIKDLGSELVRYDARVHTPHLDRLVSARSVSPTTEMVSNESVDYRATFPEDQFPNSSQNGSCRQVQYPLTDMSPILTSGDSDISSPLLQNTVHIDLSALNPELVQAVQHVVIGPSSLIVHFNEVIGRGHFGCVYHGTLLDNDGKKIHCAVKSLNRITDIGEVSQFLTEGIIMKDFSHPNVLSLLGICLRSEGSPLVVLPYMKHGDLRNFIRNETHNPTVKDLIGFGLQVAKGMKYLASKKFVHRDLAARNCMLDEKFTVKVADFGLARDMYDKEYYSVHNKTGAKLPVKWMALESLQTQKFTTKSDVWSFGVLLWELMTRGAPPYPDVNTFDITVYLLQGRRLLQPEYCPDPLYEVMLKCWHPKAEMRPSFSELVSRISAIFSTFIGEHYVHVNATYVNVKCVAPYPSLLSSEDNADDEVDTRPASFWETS
Sequence of PDK1 (O15530 whole entry): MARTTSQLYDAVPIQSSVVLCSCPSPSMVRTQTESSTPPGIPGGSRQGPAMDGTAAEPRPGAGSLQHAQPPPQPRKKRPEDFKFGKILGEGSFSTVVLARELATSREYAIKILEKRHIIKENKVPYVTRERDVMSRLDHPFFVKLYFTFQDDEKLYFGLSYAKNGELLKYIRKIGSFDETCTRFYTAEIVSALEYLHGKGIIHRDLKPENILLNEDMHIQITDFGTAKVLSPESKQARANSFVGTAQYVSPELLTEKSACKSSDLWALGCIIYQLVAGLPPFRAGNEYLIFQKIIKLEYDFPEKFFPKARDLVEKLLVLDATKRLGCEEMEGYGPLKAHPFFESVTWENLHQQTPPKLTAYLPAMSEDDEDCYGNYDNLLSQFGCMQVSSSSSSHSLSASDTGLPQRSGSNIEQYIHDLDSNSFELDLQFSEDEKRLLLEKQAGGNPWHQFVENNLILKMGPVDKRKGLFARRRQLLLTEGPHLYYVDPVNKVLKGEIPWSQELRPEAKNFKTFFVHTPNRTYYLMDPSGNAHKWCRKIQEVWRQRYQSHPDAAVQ
Sequence of Fes (P07332 whole entry): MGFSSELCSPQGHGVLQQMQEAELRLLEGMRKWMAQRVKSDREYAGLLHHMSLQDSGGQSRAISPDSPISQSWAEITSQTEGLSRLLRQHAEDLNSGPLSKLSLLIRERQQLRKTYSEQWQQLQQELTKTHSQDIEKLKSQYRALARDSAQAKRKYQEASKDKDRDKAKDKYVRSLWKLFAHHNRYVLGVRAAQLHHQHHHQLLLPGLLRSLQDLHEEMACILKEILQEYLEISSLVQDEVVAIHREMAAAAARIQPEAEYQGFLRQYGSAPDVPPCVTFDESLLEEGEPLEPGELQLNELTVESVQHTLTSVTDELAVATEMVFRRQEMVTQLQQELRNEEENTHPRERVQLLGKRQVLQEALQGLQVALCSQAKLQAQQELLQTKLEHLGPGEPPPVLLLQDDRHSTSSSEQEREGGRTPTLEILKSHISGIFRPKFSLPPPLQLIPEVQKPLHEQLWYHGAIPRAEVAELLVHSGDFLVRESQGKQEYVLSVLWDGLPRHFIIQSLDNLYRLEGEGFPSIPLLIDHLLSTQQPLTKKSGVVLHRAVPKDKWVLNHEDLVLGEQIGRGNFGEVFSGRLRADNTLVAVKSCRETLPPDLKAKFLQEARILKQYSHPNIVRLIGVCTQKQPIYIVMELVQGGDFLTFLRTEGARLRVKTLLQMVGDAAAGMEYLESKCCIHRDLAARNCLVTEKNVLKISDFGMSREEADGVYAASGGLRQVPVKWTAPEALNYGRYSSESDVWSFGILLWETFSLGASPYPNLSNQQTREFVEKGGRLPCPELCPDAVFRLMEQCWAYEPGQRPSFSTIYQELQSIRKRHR
Sequence of JAK2 (O60674 whole entry): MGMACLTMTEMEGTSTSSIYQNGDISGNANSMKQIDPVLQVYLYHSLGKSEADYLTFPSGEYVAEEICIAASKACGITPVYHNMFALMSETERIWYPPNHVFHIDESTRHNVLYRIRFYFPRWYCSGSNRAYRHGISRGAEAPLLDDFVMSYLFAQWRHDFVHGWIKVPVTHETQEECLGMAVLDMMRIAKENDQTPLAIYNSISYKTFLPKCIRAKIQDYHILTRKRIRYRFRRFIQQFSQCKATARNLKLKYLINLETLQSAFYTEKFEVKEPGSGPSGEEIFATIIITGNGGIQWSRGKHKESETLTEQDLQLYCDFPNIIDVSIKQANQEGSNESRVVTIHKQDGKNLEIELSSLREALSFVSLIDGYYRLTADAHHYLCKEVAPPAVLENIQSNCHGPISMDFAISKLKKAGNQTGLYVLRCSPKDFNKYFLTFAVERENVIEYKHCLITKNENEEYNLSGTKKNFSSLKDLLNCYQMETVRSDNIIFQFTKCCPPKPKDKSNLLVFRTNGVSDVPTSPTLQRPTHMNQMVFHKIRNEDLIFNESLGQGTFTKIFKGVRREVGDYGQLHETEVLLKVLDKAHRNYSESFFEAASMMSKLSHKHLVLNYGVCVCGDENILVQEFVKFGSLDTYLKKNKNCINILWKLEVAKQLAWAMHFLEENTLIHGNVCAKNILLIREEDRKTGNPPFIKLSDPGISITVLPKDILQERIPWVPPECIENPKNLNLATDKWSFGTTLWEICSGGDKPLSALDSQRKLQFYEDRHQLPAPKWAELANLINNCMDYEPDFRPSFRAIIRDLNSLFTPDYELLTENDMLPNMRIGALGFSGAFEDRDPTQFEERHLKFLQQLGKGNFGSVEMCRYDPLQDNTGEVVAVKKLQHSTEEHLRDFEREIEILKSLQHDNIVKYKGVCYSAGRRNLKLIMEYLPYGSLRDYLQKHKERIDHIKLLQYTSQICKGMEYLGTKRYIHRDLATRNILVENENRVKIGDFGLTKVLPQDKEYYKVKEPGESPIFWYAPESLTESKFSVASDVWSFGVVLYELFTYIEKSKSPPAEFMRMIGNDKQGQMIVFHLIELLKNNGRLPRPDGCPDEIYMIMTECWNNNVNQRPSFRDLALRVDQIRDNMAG

Usually IC50 stands for the point on the concentration scale where inhibition reaches its midpoint. A lower IC50 goes with greater potency. With `NS(=O)(=O)c1cccc2c1C(=O)c1cccc(O)c1C2=O` [LLL12], the tumor volume result in assay [1] is “significantly suppressed”. The IC50 is greater than 100 µM against Fes; greater than 100 µM against JAK2; no less than 77.9 µM against PI3K; no less than 77.9 µM against c-Raf; no less than 77.9 µM at Met; greater than 100 µM on c-SRC. The same molecule gave an IC50 on PDK1 of no less than 77.9 µM. Further, the tumorsphere forming capacity entry in assay [2] is “inhibited”. Also, in the assay on ALDH1, the “expression of ALDH1 protein” value was “down-regulated”. For the same molecule, the STAT3 phosphorylation entry in [3] is reported as “inhibited”. In [4], the “number of Ki-67 positive cells” value is listed as “decreased”. In assay [4], the “number of cleaved caspase-3 positive cells” value is reported as “increased”. Besides, in the assay with ALDH− cells, the “effects against the ALDH− cells (cell viability)” value was “some inhibitory effects”.

The values above are taken from publication PMC3871589, “Evaluation of STAT3 Signaling in ALDH+ and ALDH+/CD44+/CD24− Subpopulations of Breast Cancer Cells” (PLoS ONE, 2013).
